The source of these data is patent US7786152B2, “Compound” (priority 2002, dated 2010).

The term inhibition denotes the change of the read-out against control, counted positive when it falls.

This test has as its target T1, Human 11βHSD1 (Homo sapiens, UniProt P28845).
T1 construct: the enzyme source, native hepatic enzyme compared to recombinant enzyme; tissue XenoTech H0610/Lot 0210078; host or cells: human hepatic microsomes
Nature of the test: 11β HSD1 cortisol radioimmunoassay (RIA) with human hepatic microsomes. The format is biochemical. The conditions noted are these: read-out: % inhibition of Human 11βHSD1 @ 10 μM. Here is the method:
Biological Assay Development Using Human 11β-Hydroxysteroid Dehydrogenase Type 1. Standard Operating Procedure for the 11β-Hydroxysteroid Dehydrogenase Type 1 Cortisol Radioimmunoassay. 11β HSD1 Cortisol RIA
Enzyme assay buffer: 30 mM Tris-HCL, pH 7.2 containing 1 mM EDTA
Antibody binding buffer: 50 mM Tris-HCL, pH 8, containing 0.1 M NaCl and 0.1% gelatin
Dilute into assay buffer 1 in 25. Also dilute neat DMSO 1 in 25 into assay buffer for controls.
Dilute this 1 in 50 into assay buffer.
Prepare NADPH as a 1.8 mg/ml solution in assay buffer.
Mix these 3 solutions 1:1:1 to make a solution of sufficient volume for 25 μl additions to each sample. Add 0.5 μCi tritiated cortisone per 25 μl and mix the solution well.
Microsome preparation: Dilute stock 20 mg/ml solution 1 in 100 with assay buffer.
Dextran coated charcoal preparation: Make a 20 mg/ml solution in antibody binding buffer and chill on ice.
Enzyme assay: To a u-bottom polypropylene 96 well plate add:
25 μl compound dilution or diluted DMSO to controls, NSB's and blanks
10 μl 1 mM GA in DMSO (enzyme stop solution) to blanks
25 μl substrate mixture to all samples
50 μl diluted microsomes to all samples
Incubate plate for 30 min at 37° C. shaking
Add 10 μl enzyme stop solution to all wells except the blanks
Add 100 μl antibody solution to all wells except the NSB's, add antibody binding buffer to these wells
Incubate at 37° C. for 1 h
Chill plate on ice for 15 min
Add 50 μl/well charcoal solution and mix with an 8-channel pipette (4-5 aspirations)
Centrifuge at 4° C., 2000×g for 15 min
Transfer 100 μl supernatant into an Optiplate, also add 25 μl substrate mixture to 2 empty wells to indicate counting efficiency
Add 200 μl Microscint-40 to all wells and count on a Topcount
The 11β HSD1 enzyme assay was carried out following the standard operating procedure described above in u-bottom polypropylene 96 well plates or 1.5 ml Eppendorf tubes as indicated for each experiment. Subsequent to stopping the enzyme reaction, 100 μl antibody prepared in buffer 3 unless otherwise indicated was added to test samples and 100 μl buffer 3 was added to the NSB samples. The samples were incubated for 1 hour at 37° C. and the chilled on ice for 15 mins. Dextran coated charcoal (50 μl/sample) prepared to the indicated concentration in buffer 3 was added and the samples were mixed (vortex for tubes and aspiration 5 times with an 8-channel pipette for 96 well plates) and chilled for a further 10 min. The samples were centrifuged at 2000×g for 15 min at 4° C. to pellet the charcoal. Aliquots of the supernatant (100 μl) were transferred to an Optiplate and counted on the Topcount in 150-200 μl Microscint 40. In some experiments, aliquots of supernatant were transferred to scintillation vials and counted on the Tricarb LSC in 5 ml Ultima Gold scintillant.
Substrate saturation was examined. The enzyme assay was carried out exactly described in the methods section, in Buffer 3 with 10 μg/well microsomal protein and with [cold cortisone] as indicated. [3H]-cortisone was 0.5 μCi/sample throughout. The reaction was stopped after 30 min by the addition of 10 μl stop solution. The RIA was carried out exactly as indicated in the methods section.
It is reported that DMSO can both increase and reduce microsomal enzyme activity, depending on the concentration, presumably due to effects on the microsomal membranes.

T1 sequence (P28845 whole entry): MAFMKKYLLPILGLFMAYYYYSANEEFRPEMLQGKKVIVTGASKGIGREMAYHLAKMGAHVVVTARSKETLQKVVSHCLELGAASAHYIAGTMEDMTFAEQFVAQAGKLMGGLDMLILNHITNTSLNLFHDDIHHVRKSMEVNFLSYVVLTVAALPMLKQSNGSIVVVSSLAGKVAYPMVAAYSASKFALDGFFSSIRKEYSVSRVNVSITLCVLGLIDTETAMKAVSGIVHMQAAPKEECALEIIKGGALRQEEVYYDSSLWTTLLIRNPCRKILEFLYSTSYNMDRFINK

Consider `Cc1nc2cc(NS(=O)(=O)c3ccc(Cl)cc3Cl)ccc2s1` [compound 412], for which the inhibition at 10 µM worked out at 36%.

For `Cc1nc2cc(NS(=O)(=O)c3cccc(Cl)c3C)ccc2s1` [compound 413], the inhibition at 10 µM turned out to be 29%.

For `CCCc1ccc(S(=O)(=O)Nc2ccc3sc(C)nc3c2)cc1` [compound 421], the inhibition at 10 µM was 42%.

Regarding `COc1ccc(S(=O)(=O)Nc2ccc3sc(C)nc3c2)cc1` [compound 424], the inhibition at 10 µM is 47%.

For the molecule `Cc1nc2cc(NS(=O)(=O)c3c(C)cccc3Cl)ccc2s1` [compound 425], the inhibition at 10 µM is 41%.

For `Cc1nc2cc(N(C)S(=O)(=O)c3cccc(Cl)c3C)ccc2s1` [compound 469], the inhibition at 10 µM stood at 66%.

Take `CCN(c1ccc2sc(C)nc2c1)S(=O)(=O)c1cccc(Cl)c1C` [compound 470]: the inhibition at 10 µM worked out at 54%.

Consider `Cc1nc2cc(NS(=O)(=O)c3ccc(Br)cc3)ccc2s1` [compound 519], for which the inhibition at 10 µM worked out at 48%.

In the case of `Cc1nc2cc(NS(=O)(=O)c3ccc(-c4ccccc4)cc3)ccc2s1` [compound 521], the inhibition at 10 µM was determined as 60%.

`Cc1nc2cc(NS(=O)(=O)c3c(Cl)cc(Cl)cc3Cl)ccc2s1` [compound 522]: the inhibition at 10 µM is 47%.

Regarding `Cc1nc2cc(NS(=O)(=O)c3ccc(Br)cc3C)ccc2s1` [compound 523], the inhibition at 10 µM amounted to 61%.

In the case of `Cc1nc2cc(NS(=O)(=O)c3cccc4cccnc34)ccc2s1` [compound 552], the inhibition at 10 µM amounted to 45%.

For the molecule `Cc1nc2cc(NS(=O)(=O)c3cccc4ccccc34)ccc2s1` [compound 553], the inhibition at 10 µM turned out to be 48%.

In the case of `Cc1nc2cc(NS(=O)(=O)c3cccc4c(N(C)C)cccc34)ccc2s1` [compound 554], the inhibition at 10 µM is 53%.

On to `Cc1nc2cc(NS(=O)(=O)c3cc(Cl)ccc3Cl)ccc2s1` [compound 580], for which the inhibition at 10 µM was 30%.

As to `Cc1nc2cc(NS(=O)(=O)c3ccc4c(c3)CN(C(=O)C(F)(F)F)CC4)ccc2s1` [compound 581], the inhibition at 10 µM came out at 29%.

For the molecule `COc1ccc(Cl)cc1S(=O)(=O)Nc1ccc2sc(C)nc2c1` [compound 582], the inhibition at 10 µM came to 34%.

Consider `Cc1nc2cc(NS(=O)(=O)c3ccccc3C#N)ccc2s1` [compound 583], for which the inhibition at 10 µM was determined as 28%.

With `COc1cc(C)ccc1S(=O)(=O)Nc1ccc2sc(C)nc2c1` [compound 584], the inhibition at 10 µM was determined as 20%.

Take `Cc1nc2cc(NS(=O)(=O)c3ccc(Oc4ccccc4)cc3)ccc2s1` [compound 585]: the inhibition at 10 µM was determined as 58%.

With `CC(=O)c1ccccc1S(=O)(=O)Nc1ccc2sc(C)nc2c1` [compound 701], the inhibition at 10 µM turned out to be 41%.

For `Cc1nc2cc(NS(=O)(=O)c3c(C(C)C)cc(C(C)C)cc3C(C)C)ccc2s1` [compound 703], the inhibition at 10 µM is 37%.

For the molecule `Cc1nc2cc(NS(=O)(=O)c3ccc(C(C)C)cc3)ccc2s1` [compound 704], the inhibition at 10 µM is 44%.

Regarding `COC(=O)c1ccccc1S(=O)(=O)Nc1ccc2sc(C)nc2c1` [compound 705], the inhibition at 10 µM came out at 28%.

With `COc1c(C)c(C)c(S(=O)(=O)Nc2ccc3sc(C)nc3c2)c(C)c1C` [compound 708], the inhibition at 10 µM is 21%.

In the case of `Cc1nc2cc(NS(=O)(=O)c3ccc(C(C)(C)C)cc3)ccc2s1` [compound 709], the inhibition at 10 µM is 49%.

Consider `Cc1nc2cc(NS(=O)(=O)c3c(C)c(C)c(C)c(C)c3C)ccc2s1` [compound 710], for which the inhibition at 10 µM came to 35%.

`CCSc1nc2ccc(NS(=O)(=O)c3cccc(Cl)c3C)cc2s1` [compound 751]: the inhibition at 10 µM amounted to 22%.
